{"source": "ChEMBL document CHEMBL1275409", "about": "“Antimicrobial-resistant pathogens in intensive care units in Canada: results of the Canadian National Intensive Care Unit (CAN-ICU) study, 2005-2006” (2008)", "assay_type_in_all_cases": "functional", "key": {"Staphylococcus aureus [1]": {"system": "Staphylococcus aureus", "assay": "Antimicrobial activity against methicillin-susceptible Staphylococcus aureus isolated from ICU patient respiratory tract assessed as resistant isolates by broth microdilution method"}, "Escherichia coli [2]": {"system": "Escherichia coli", "assay": "Antimicrobial activity against CTX-M ESBL producing Escherichia coli isolated from ICU patient urine assessed as resistant isolates by broth microdilution method"}, "Streptococcus pneumoniae [3]": {"system": "Streptococcus pneumoniae", "assay": "Antimicrobial activity against penicillin-resistant Streptococcus pneumoniae assessed as resistant isolates by broth microdilution method"}, "Klebsiella pneumoniae [4]": {"system": "Klebsiella pneumoniae", "assay": "Antimicrobial activity against ESBL producing Klebsiella pneumoniae assessed as resistant isolates by broth microdilution method"}, "Escherichia coli [5]": {"system": "Escherichia coli", "assay": "Antimicrobial activity against CTX-M ESBL producing Escherichia coli isolated from ICU patient wound assessed as resistant isolates by broth microdilution method"}, "Enterobacter cloacae [6]": {"system": "Enterobacter cloacae", "assay": "Antimicrobial activity against carbapenem-resistant Enterobacter cloacae isolated from ICU patient blood assessed as resistant isolates by broth microdilution method"}, "Klebsiella pneumoniae [7]": {"system": "Klebsiella pneumoniae", "assay": "Antimicrobial activity against ESBL producing Klebsiella pneumoniae isolated from ICU patient blood assessed as resistant isolates by broth microdilution method"}, "Streptococcus pneumoniae [8]": {"system": "Streptococcus pneumoniae", "assay": "Antimicrobial activity against penicillin-resistant Streptococcus pneumoniae isolated from ICU patient respiratory tract assessed as resistant isolates by broth microdilution method"}, "Haemophilus influenzae [9]": {"system": "Haemophilus influenzae", "assay": "Antimicrobial activity against Haemophilus influenzae assessed as resistant isolates by broth microdilution method"}, "Escherichia coli [10]": {"system": "Escherichia coli", "assay": "Antimicrobial activity against CTX-M ESBL producing Escherichia coli assessed as resistant isolates by broth microdilution method"}, "Pseudomonas aeruginosa [11]": {"system": "Pseudomonas aeruginosa", "assay": "Antimicrobial activity against carbapenem-resistant Pseudomonas aeruginosa assessed as resistant isolates by broth microdilution method"}, "[12]": {"system": "Staphylococcus epidermidis", "assay": "Antimicrobial activity against methicillin-susceptible Staphylococcus epidermidis isolated from ICU patient urine assessed as resistant isolates by broth microdilution method"}, "Staphylococcus aureus [13]": {"system": "Staphylococcus aureus", "assay": "Antimicrobial activity against methicillin-resistant Staphylococcus aureus isolated from ICU patient urine assessed as resistant isolates by broth microdilution method"}, "Staphylococcus aureus [14]": {"system": "Staphylococcus aureus", "assay": "Antimicrobial activity against methicillin-susceptible Staphylococcus aureus isolated from ICU patient wound assessed as resistant isolates by broth microdilution method"}, "Pseudomonas aeruginosa [15]": {"system": "Pseudomonas aeruginosa", "assay": "Antimicrobial activity against carbapenem-resistant Pseudomonas aeruginosa isolated from ICU patient urine assessed as resistant isolates by broth microdilution method"}, "Staphylococcus aureus [16]": {"system": "Staphylococcus aureus", "assay": "Antimicrobial activity against methicillin-resistant Staphylococcus aureus assessed as resistant isolates by broth microdilution method"}, "Enterobacter cloacae [17]": {"system": "Enterobacter cloacae", "assay": "Antimicrobial activity against carbapenem-resistant Enterobacter cloacae isolated from ICU patient respiratory tract assessed as resistant isolates by broth microdilution method"}, "[18]": {"system": "Staphylococcus epidermidis", "assay": "Antimicrobial activity against methicillin-susceptible Staphylococcus epidermidis isolated from ICU patient blood assessed as resistant isolates by broth microdilution method"}, "Haemophilus influenzae [19]": {"system": "Haemophilus influenzae", "assay": "Antimicrobial activity against Haemophilus influenzae isolated from ICU patient respiratory tract assessed as resistant isolates by broth microdilution method"}, "Staphylococcus aureus [20]": {"system": "Staphylococcus aureus", "assay": "Antimicrobial activity against methicillin-susceptible Staphylococcus aureus isolated from ICU patient blood assessed as resistant isolates by broth microdilution method"}, "Streptococcus pneumoniae [21]": {"system": "Streptococcus pneumoniae", "assay": "Antimicrobial activity against penicillin-resistant Streptococcus pneumoniae isolated from ICU patient wound assessed as resistant isolates by broth microdilution method"}, "Staphylococcus aureus [22]": {"system": "Staphylococcus aureus", "assay": "Antimicrobial activity against methicillin-susceptible Staphylococcus aureus assessed as resistant isolates by broth microdilution method"}, "Klebsiella pneumoniae [23]": {"system": "Klebsiella pneumoniae", "assay": "Antimicrobial activity against ESBL producing Klebsiella pneumoniae isolated from ICU patient wound assessed as resistant isolates by broth microdilution method"}, "Klebsiella pneumoniae [24]": {"system": "Klebsiella pneumoniae", "assay": "Antimicrobial activity against ESBL producing Klebsiella pneumoniae isolated from ICU patient respiratory tract assessed as resistant isolates by broth microdilution method"}, "Staphylococcus aureus [25]": {"system": "Staphylococcus aureus", "assay": "Antimicrobial activity against methicillin-resistant Staphylococcus aureus isolated from ICU patient wound assessed as resistant isolates by broth microdilution method"}, "Staphylococcus aureus [26]": {"system": "Staphylococcus aureus", "assay": "Antimicrobial activity against methicillin-resistant Staphylococcus aureus isolated from ICU patient respiratory tract assessed as resistant isolates by broth microdilution method"}, "[27]": {"system": "Staphylococcus epidermidis", "assay": "Antimicrobial activity against methicillin-susceptible Staphylococcus epidermidis assessed as resistant isolates by broth microdilution method"}, "Enterobacter cloacae [28]": {"system": "Enterobacter cloacae", "assay": "Antimicrobial activity against carbapenem-resistant Enterobacter cloacae isolated from ICU patient wound assessed as resistant isolates by broth microdilution method"}, "[29]": {"system": "Staphylococcus epidermidis", "assay": "Antimicrobial activity against methicillin-susceptible Staphylococcus epidermidis isolated from ICU patient respiratory tract assessed as resistant isolates by broth microdilution method"}, "Enterobacter cloacae [30]": {"system": "Enterobacter cloacae", "assay": "Antimicrobial activity against carbapenem-resistant Enterobacter cloacae assessed as resistant isolates by broth microdilution method"}, "Streptococcus pneumoniae [31]": {"system": "Streptococcus pneumoniae", "assay": "Antimicrobial activity against penicillin-resistant Streptococcus pneumoniae isolated from ICU patient blood assessed as resistant isolates by broth microdilution method"}, "Pseudomonas aeruginosa [32]": {"system": "Pseudomonas aeruginosa", "assay": "Antimicrobial activity against carbapenem-resistant Pseudomonas aeruginosa isolated from ICU patient blood assessed as resistant isolates by broth microdilution method"}, "Klebsiella pneumoniae [33]": {"system": "Klebsiella pneumoniae", "assay": "Antimicrobial activity against ESBL producing Klebsiella pneumoniae isolated from ICU patient urine assessed as resistant isolates by broth microdilution method"}, "Pseudomonas aeruginosa [34]": {"system": "Pseudomonas aeruginosa", "assay": "Antimicrobial activity against carbapenem-resistant Pseudomonas aeruginosa isolated from ICU patient respiratory tract assessed as resistant isolates by broth microdilution method"}, "Escherichia coli [35]": {"system": "Escherichia coli", "assay": "Antimicrobial activity against CTX-M ESBL producing Escherichia coli isolated from ICU patient respiratory tract assessed as resistant isolates by broth microdilution method"}, "[36]": {"system": "Staphylococcus epidermidis", "assay": "Antimicrobial activity against methicillin-resistant Staphylococcus epidermidis isolated from ICU patient urine assessed as resistant isolates by broth microdilution method"}, "Haemophilus influenzae [37]": {"system": "Haemophilus influenzae", "assay": "Antimicrobial activity against Haemophilus influenzae isolated from ICU patient wound assessed as resistant isolates by broth microdilution method"}, "[38]": {"system": "Staphylococcus epidermidis", "assay": "Antimicrobial activity against methicillin-resistant Staphylococcus epidermidis assessed as resistant isolates by broth microdilution method"}, "Enterobacter cloacae [39]": {"system": "Enterobacter cloacae", "assay": "Antimicrobial activity against carbapenem-resistant Enterobacter cloacae isolated from ICU patient urine assessed as resistant isolates by broth microdilution method"}, "Staphylococcus aureus [40]": {"system": "Staphylococcus aureus", "assay": "Antimicrobial activity against methicillin-resistant Staphylococcus aureus isolated from ICU patient blood assessed as resistant isolates by broth microdilution method"}, "Escherichia coli [41]": {"system": "Escherichia coli", "assay": "Antimicrobial activity against CTX-M ESBL producing Escherichia coli isolated from ICU patient blood assessed as resistant isolates by broth microdilution method"}, "[42]": {"system": "Staphylococcus epidermidis", "assay": "Antimicrobial activity against methicillin-resistant Staphylococcus epidermidis isolated from ICU patient wound assessed as resistant isolates by broth microdilution method"}, "Haemophilus influenzae [43]": {"system": "Haemophilus influenzae", "assay": "Antimicrobial activity against Haemophilus influenzae isolated from ICU patient blood assessed as resistant isolates by broth microdilution method"}, "Staphylococcus aureus [44]": {"system": "Staphylococcus aureus", "assay": "Antimicrobial activity against methicillin-susceptible Staphylococcus aureus isolated from ICU patient urine assessed as resistant isolates by broth microdilution method"}, "Pseudomonas aeruginosa [45]": {"system": "Pseudomonas aeruginosa", "assay": "Antimicrobial activity against carbapenem-resistant Pseudomonas aeruginosa isolated from ICU patient wound assessed as resistant isolates by broth microdilution method"}, "[46]": {"system": "Staphylococcus epidermidis", "assay": "Antimicrobial activity against methicillin-susceptible Staphylococcus epidermidis isolated from ICU patient wound assessed as resistant isolates by broth microdilution method"}, "[47]": {"system": "Staphylococcus epidermidis", "assay": "Antimicrobial activity against methicillin-resistant Staphylococcus epidermidis isolated from ICU patient blood assessed as resistant isolates by broth microdilution method"}}, "data": [{"smiles": "C[C@@H](O)[C@H]1C(=O)N2C(C(=O)O)=C(S[C@@H]3CN[C@H](C(=O)N(C)C)C3)[C@H](C)[C@H]12", "note": "[MEROPENEM]", "values": [{"measurement": "Activity", "setting": "Staphylococcus aureus [1]", "value": 0, "unit": "%"}, {"measurement": "Activity", "setting": "Escherichia coli [2]", "value": 0, "unit": "%"}, {"measurement": "Activity", "setting": "Streptococcus pneumoniae [3]", "value": 0.4, "unit": "%"}, {"measurement": "Activity", "setting": "Klebsiella pneumoniae [4]", "value": 13.6, "unit": "%"}, {"measurement": "Activity", "setting": "Escherichia coli [5]", "value": 0, "unit": "%"}, {"measurement": "Activity", "setting": "Enterobacter cloacae [6]", "value": 0, "unit": "%"}, {"measurement": "Activity", "setting": "Klebsiella pneumoniae [7]", "value": 9.1, "unit": "%"}, {"measurement": "Activity", "setting": "Streptococcus pneumoniae [8]", "value": 0.5, "unit": "%"}, {"measurement": "Activity", "setting": "Haemophilus influenzae [9]", "value": 0, "unit": "%"}, {"measurement": "Activity", "setting": "Escherichia coli [10]", "value": 0, "unit": "%"}, {"measurement": "Activity", "setting": "Pseudomonas aeruginosa [11]", "value": 0, "unit": "%"}, {"measurement": "Activity", "setting": "[12]", "value": 0, "unit": "%"}, {"measurement": "Activity", "setting": "Staphylococcus aureus [13]", "value": 100, "unit": "%"}, {"measurement": "Activity", "setting": "Staphylococcus aureus [14]", "value": 0, "unit": "%"}, {"measurement": "Activity", "setting": "Pseudomonas aeruginosa [15]", "value": 0, "unit": "%"}, {"measurement": "Activity", "setting": "Staphylococcus aureus [16]", "value": 100, "unit": "%"}, {"measurement": "Activity", "setting": "Enterobacter cloacae [17]", "value": 0, "unit": "%"}, {"measurement": "Activity", "setting": "[18]", "value": 1.8, "unit": "%"}, {"measurement": "Activity", "setting": "Haemophilus influenzae [19]", "value": 0, "unit": "%"}, {"measurement": "Activity", "setting": "Staphylococcus aureus [20]", "value": 0, "unit": "%"}, {"measurement": "Activity", "setting": "Streptococcus pneumoniae [21]", "value": 0, "unit": "%"}, {"measurement": "Activity", "setting": "Staphylococcus aureus [22]", "value": 0, "unit": "%"}, {"measurement": "Activity", "setting": "Klebsiella pneumoniae [23]", "value": 18.9, "unit": "%"}, {"measurement": "Activity", "setting": "Klebsiella pneumoniae [24]", "value": 12.5, "unit": "%"}, {"measurement": "Activity", "setting": "Staphylococcus aureus [25]", "value": 100, "unit": "%"}, {"measurement": "Activity", "setting": "Staphylococcus aureus [26]", "value": 100, "unit": "%"}, {"measurement": "Activity", "setting": "[27]", "value": 9.3, "unit": "%"}, {"measurement": "Activity", "setting": "Enterobacter cloacae [28]", "value": 0, "unit": "%"}, {"measurement": "Activity", "setting": "[29]", "value": 0, "unit": "%"}, {"measurement": "Activity", "setting": "Enterobacter cloacae [30]", "value": 0, "unit": "%"}, {"measurement": "Activity", "setting": "Streptococcus pneumoniae [31]", "value": 0, "unit": "%"}, {"measurement": "Activity", "setting": "Pseudomonas aeruginosa [32]", "value": 0, "unit": "%"}, {"measurement": "Activity", "setting": "Klebsiella pneumoniae [33]", "value": 17.8, "unit": "%"}, {"measurement": "Activity", "setting": "Pseudomonas aeruginosa [34]", "value": 0, "unit": "%"}, {"measurement": "Activity", "setting": "Escherichia coli [35]", "value": 0, "unit": "%"}, {"measurement": "Activity", "setting": "[36]", "value": 100, "unit": "%"}, {"measurement": "Activity", "setting": "Haemophilus influenzae [37]", "value": 0, "unit": "%"}, {"measurement": "Activity", "setting": "[38]", "value": 100, "unit": "%"}, {"measurement": "Activity", "setting": "Enterobacter cloacae [39]", "value": 0, "unit": "%"}, {"measurement": "Activity", "setting": "Staphylococcus aureus [40]", "value": 100, "unit": "%"}, {"measurement": "Activity", "setting": "Escherichia coli [41]", "value": 0, "unit": "%"}, {"measurement": "Activity", "setting": "[42]", "value": 100, "unit": "%"}, {"measurement": "Activity", "setting": "Haemophilus influenzae [43]", "value": 0, "unit": "%"}, {"measurement": "Activity", "setting": "Staphylococcus aureus [44]", "value": 0, "unit": "%"}, {"measurement": "Activity", "setting": "Pseudomonas aeruginosa [45]", "value": 0, "unit": "%"}, {"measurement": "Activity", "setting": "[46]", "value": 29.2, "unit": "%"}, {"measurement": "Activity", "setting": "[47]", "value": 100, "unit": "%"}]}]}
